Results published in ChEMBL document CHEMBL1127594, “Inhibitors of acyl-CoA:cholesterol O-acyltransferase. 11. Structure-activity relationships of several series of compounds derived from N-(chlorocarbonyl) isocyanate” (J Med Chem, 1994).

Columns and labels:
[1] = test system: Rattus norvegicus; experiment: In vivo hypocholesterolemic activity was measured in an acute, cholesterol-fed rat model (APCC) at 30 mg/kg dose.; format: functional
[2] = biological target: O-acyltransferase (Oryctolagus cuniculus, UniProt G1SFD9); experiment: In vitro Acyl coenzyme A:cholesterol acyltransferase inhibitory activity (IAI) was determined by measuring the incorporation of [1-14C]oleolyl-CoA into cholesterol esters by intestinal microsomes isolated from cholesterol-fed rabbits; design: species or system Intestine
Sequence of O-acyltransferase (G1SFD9 1-524): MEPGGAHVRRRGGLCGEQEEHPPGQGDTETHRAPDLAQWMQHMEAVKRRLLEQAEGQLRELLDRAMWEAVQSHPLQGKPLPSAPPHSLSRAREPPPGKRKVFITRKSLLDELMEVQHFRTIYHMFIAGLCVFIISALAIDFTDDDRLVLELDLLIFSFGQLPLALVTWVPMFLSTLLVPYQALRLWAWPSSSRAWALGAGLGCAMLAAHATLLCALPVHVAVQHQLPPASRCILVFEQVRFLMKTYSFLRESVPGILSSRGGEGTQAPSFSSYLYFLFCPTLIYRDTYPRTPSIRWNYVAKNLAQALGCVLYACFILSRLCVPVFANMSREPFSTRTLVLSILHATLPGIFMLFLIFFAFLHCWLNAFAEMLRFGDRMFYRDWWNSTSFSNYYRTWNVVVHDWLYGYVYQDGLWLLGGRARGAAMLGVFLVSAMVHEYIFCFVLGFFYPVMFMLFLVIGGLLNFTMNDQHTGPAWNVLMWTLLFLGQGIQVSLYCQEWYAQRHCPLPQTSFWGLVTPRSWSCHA

Compound | Delta TC [1] [%] | IC50 [2] [nM]
CCCCCCCCCCCCOC(=O)NC(=O)Oc1c(C(C)C)cccc1C(C)C | <-52 | 21
CCCCCCCCCCCCCCN(C)C(=O)NC(=O)Nc1c(C(C)C)cccc1C(C)C |  | 1700
CC(C)c1cccc(C(C)C)c1NC(=O)NC(=O)N1c2ccccc2Sc2ccccc21 | -6 | 1900
CCCCC(C)(C)OC(=O)NC(=O)Oc1c(C(C)C)cccc1C(C)C | -29 | 64
CCCCCCCCCCCOC(=O)NC(=O)Oc1c(C(C)C)cccc1C(C)C | <-65 | 140
CCCCCCCCCCC(C)(C)COC(=O)NC(=O)Oc1c(C(C)C)cccc1C(C)C | <-72 | 20
CC(C)c1cccc(C(C)C)c1NC(=O)NC(=O)NC(c1ccccc1)c1ccccc1 | 4 | 
CCCCCCCCSC(=O)NC(=O)Oc1c(C(C)C)cccc1C(C)C | <-63 | 160
CCCCC[C@@H](C)OC(=O)NC(=O)Oc1c(C(C)C)cccc1C(C)C | <-49 | 130
CC(C)c1cccc(C(C)C)c1OC(=O)NC(=O)Sc1ccccc1 | <-37 | > 5000
CCCCCCCC(C)OC(=O)NC(=O)Nc1c(C(C)C)cccc1C(C)C (configuration not stated) | <-24 | 390
CCCCCCCCN(CCCCCCCC)C(=O)NC(=O)Nc1c(C(C)C)cccc1C(C)C | 3 | 350
CCCCCCCCCCCCCCC(C)OC(=O)NC(=O)Oc1c(C(C)C)cccc1C(C)C (racemic) | <-43 | 58
CC(C)c1cccc(C(C)C)c1OC(=O)NC(=O)SCCN1CCOCC1 | <-33 | 900
CCCCCCCCCCCCCCCCCCOC(=O)NC(=O)Oc1c(C(C)C)cccc1C(C)C | <-35 | 1000
CCCCCCCCC(C)OC(=O)NC(=O)Nc1c(C(C)C)cccc1C(C)C (configuration not stated) | <-22 | 750
CC(C)c1cccc(C(C)C)c1OC(=O)NC(=O)NC(c1ccccc1)c1ccccc1 | -4 | 
CCCCCCCCCCCCSC(=O)NC(=O)Oc1c(OC)cc(OC)cc1OC | <-59 | 250
CC(C)c1cccc(C(C)C)c1OC(=O)NC(=O)Oc1ccccc1 | <-29 | 1800
CCCCCCCCCCCCOC(=O)NC(=O)Nc1c(C(C)C)cccc1C(C)C | <-38 | 120
CCCCCCCCCCCCC(C)(C)OC(=O)NC(=O)Nc1c(C(C)C)cccc1C(C)C |  | 65
CC(C)c1cccc(C(C)C)c1NC(=O)NC(=O)N1CCCC1 | -7 | 
CCCCCCCCOC(=O)NC(=O)Oc1c(C(C)C)cccc1C(C)C | <-47 | 250
CCCCCC(C)OC(=O)NC(=O)Oc1c(C(C)C)cccc1C(C)C (racemic) | <-60 | 102
CC(C)c1cccc(C(C)C)c1OC(=O)NC(=O)N(c1ccccc1)c1ccccc1 | -3 | 170
CCCCCCCCCCCSC(=O)NC(=O)Oc1c(C(C)C)cccc1C(C)C | <-54 | 210

Compound | Delta TC [1] [%] | IC50 [2] [nM]
CCCCCCCCCCSC(=O)NC(=O)Oc1c(C(C)C)cccc1C(C)C | <-52 | 130
CCCCCCCCCCCCC(C)OC(=O)N(C)C(=O)Oc1c(C(C)C)cccc1C(C)C (racemic) | -8 | > 1000
CC(C)c1cccc(C(C)C)c1OC(=O)NC(=O)SCc1ccccc1 | <-43 | 440
CC(C)c1cccc(C(C)C)c1NC(=O)NC(=O)N(c1ccccc1)c1ccccc1 | <-49 | 340
CC(C)c1cccc(C(C)C)c1NC(=O)N(C)C(=O)N(c1ccccc1)c1ccccc1 |  | 440
CC(C)c1cccc(C(C)C)c1NC(=O)NC(=O)Nc1c(C(C)C)cccc1C(C)C | 0 | 
CCCCCCCCCCCCSC(=O)NC(=O)Oc1c(C(C)C)cccc1C(C)C | <-63 | 16
Cc1cccc(C)c1OC(=O)NC(=O)Oc1c(C)cccc1C | 4 | > 5000
CCCCCCCCCCCCCCOC(=O)NC(=O)Oc1c(OC)cc(OC)cc1OC | -15 | > 5000
CCCCCCCC(C)OC(=O)NC(=O)Oc1c(C(C)C)cccc1C(C)C (racemic) | <-56 | 97
O=C(NC(=O)Oc1c(-c2ccccc2)cccc1-c1ccccc1)Oc1c(-c2ccccc2)cccc1-c1ccccc1 | 0 | 230
CCCCCCCCCCCCC(C)(C)OC(=O)NC(=O)Oc1c(C(C)C)cccc1C(C)C | <-51 | 21
CCCCCCCCCCCCOC(=O)NC(=O)Sc1c(C(C)C)cccc1C(C)C | -4 | 
CCCCCCOC(=O)NC(=O)Oc1c(C(C)C)cccc1C(C)C | <-38 | 53
CCCCC[C@H](C)OC(=O)NC(=O)Oc1c(C(C)C)cccc1C(C)C | -25 | 98
CCCCCCCCCCC(C)OC(=O)NC(=O)Nc1c(C(C)C)cccc1C(C)C (configuration not stated) | <-26 | 
COC(=O)C(OC(=O)NC(=O)Oc1c(C(C)C)cccc1C(C)C)c1ccccc1 (configuration not stated) | -3 | 940
CCCCCCCCCCCCCCCCOC(=O)NC(=O)Oc1c(C(C)C)cccc1C(C)C | <-70 | 
CC(C)c1cccc(C(C)C)c1NC(=O)NC(=O)N(Cc1ccccc1)Cc1ccccc1 | -14 | 1040
CCCCCCCCCCC(C)OC(=O)NC(=O)Oc1c(C(C)C)cccc1C(C)C (racemic) | <-66 | 49
CC(C)c1cccc(C(C)C)c1NC(=O)NC(=O)N(Cc1ccccc1)C(C)C | <-22 | 750
CC(C)c1cccc(C(C)C)c1OC(=O)NC(=O)SCCc1ccccc1 | -30 | 880
CCCCCCCCCCCCCCC(C)OC(=O)NC(=O)Nc1c(C(C)C)cccc1C(C)C (configuration not stated) | <-26 | 6800
CC(C)(C)c1cccc(C(C)(C)C)c1OC(=O)NC(=O)Oc1c(C(C)(C)C)cccc1C(C)(C)C | <-23 | 1200
CC(C)c1cccc(C(C)C)c1NC(=O)NC(=O)N1c2ccccc2Cc2ccccc21 | -18 | 890
CCCCCCCCCCCCC(C)OC(=O)NC(=O)Nc1c(C(C)C)cccc1C(C)C (configuration not stated) | <-33 | 46

Compound | Delta TC [1] [%] | IC50 [2] [nM]
CC(C)c1cccc(C(C)C)c1NC(=O)NC(=O)Oc1c(C(C)C)cccc1C(C)C | <-25 | 980
CCN(CC)C(=O)NC(=O)Nc1c(C(C)C)cccc1C(C)C | -16 | 
CCCCCCCCCCCCCOC(=O)NC(=O)Oc1c(C(C)C)cccc1C(C)C | <-69 | 9
CCCCCCCCC(C)OC(=O)NC(=O)Oc1c(C(C)C)cccc1C(C)C (racemic) | <-54 | 270
CC(C)c1cccc(C(C)C)c1OC(=O)NC(=O)SCCCc1ccccc1 | <-63 | 69
CCCCCCCCCCCCSC(=O)NC(=O)Sc1c(C(C)C)cccc1C(C)C | <-36 | > 5000
CCCCCCCCCCCCC(C)OC(=O)NC(=O)Oc1c(C(C)C)cccc1C(C)C (racemic) | <-50 | 17
CC(C)c1cccc(C(C)C)c1OC(=O)NC(=O)Oc1c(C(C)C)cccc1C(C)C | -24 | 110
CC(C)c1cccc(C(C)C)c1OC(=O)NC(=O)OCCCc1ccccc1 | -24 | 660
CC(C)c1cccc(C(C)C)c1OC(=O)NC(=O)OCc1ccccc1 | -23 | 77
CC(C)c1cccc(C(C)C)c1OC(=O)NC(=O)Sc1c(C(C)C)cccc1C(C)C | <-20 | 3200
CC(C)c1cccc(C(C)C)c1OC(=O)NC(=O)SCc1ccco1 | <-51 | 470
Cc1cccc(C)c1SC(=O)NC(=O)Sc1c(C)cccc1C | -13 | > 5000
CCCCN(CCCC)C(=O)NC(=O)Nc1c(C(C)C)cccc1C(C)C | <-30 | 250
CCCCCCCCCCCCC(C)OC(=O)NC(=O)Oc1c(F)cccc1F (racemic) | <-35 | > 1000
CCCCCC(C)OC(=O)NC(=O)Nc1c(C(C)C)cccc1C(C)C (configuration not stated) | <-22 | 1060
CC(C)c1cccc(C(C)C)c1OC(=O)NC(=O)SC1CCCCC1 | <-63 | 97
CCCCCCCCCCOC(=O)NC(=O)Oc1c(C(C)C)cccc1C(C)C | <-44 | 74
CCCCCCCCCCCCCCOC(=O)NC(=O)Oc1c(C(C)C)cccc1C(C)C | <-59 | 10
CC(C)c1cccc(C(C)C)c1NC(=O)NC(=O)N1CCC(c2ccccc2)CC1 | 3 | 890
CC(C)c1cccc(C(C)C)c1OC(=O)NC(=O)OC(c1ccccc1)c1ccccc1 | <-44 | 350
CC(C)c1cccc(C(C)C)c1OC(=O)NC(=O)Oc1cccc2ccccc12 |  | 3700
CC(C)c1cccc(C(C)C)c1NC(=O)NC(=O)OC(c1ccccc1)c1ccccc1 | -3 | 7800
CCCCCCCCCCCCC(C)SC(=O)NC(=O)Oc1c(C(C)C)cccc1C(C)C (racemic) | <-60 | 8
CC(C)c1cccc(C(C)C)c1OC(=O)NC(=O)SCc1ccc(Cl)cc1 | <-50 | 160
